From the supplement of paper PMC10307832

Columns and labels:
Assay in all cases: relative viability (nuclei count vs DMSO), 5 days (fraction); higher = more cells survive
[1] = compound: CC[C@H](Nc1ncnc2[nH]cnc12)c1nc2cccc(F)c2c(=O)n1-c1ccccc1 [Idelalisib] + N=C(N)NC(=N)NCCc1ccccc1 [Phenformin] (partner 250 µM)
In short: (§1)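 Relative viability equals treated-well nuclei counts divided by vehicle-well nuclei counts. Counts came from 4× images of lung cancer cell lines grown in 1536-well plates for 5 days after pin-tool dosing on the day after seeding. Dosing used one drug alone or a fixed anchor-drug dose plus five library-drug doses (not always all listed) in √10 steps, and values are medians of duplicate plates.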

[2] = compound: CC[C@H](Nc1ncnc2[nH]cnc12)c1nc2cccc(F)c2c(=O)n1-c1ccccc1 [Idelalisib] + CC(=O)Nc1cccc(-n2c(=O)n(C3CC3)c(=O)c3c(Nc4ccc(I)cc4F)n(C)c(=O)c(C)c32)c1 [Trametinib] (partner 0.02 µM)
In short: as §1

[3] = compound: CC[C@H](Nc1ncnc2[nH]cnc12)c1nc2cccc(F)c2c(=O)n1-c1ccccc1 [Idelalisib] + Nc1ncn([C@H]2C[C@H](O)[C@@H](CO)O2)c(=O)n1 [Decitabine] (partner 2 µM)
In short: as §1

[4] = compound: Nc1nc2[nH]cc(CCc3ccc(C(=O)N[C@@H](CCC(=O)O)C(=O)O)cc3)c2c(=O)[nH]1 [Pemetrexed] + C[C@]1(O)C[C@@H](c2nc(-c3ccc4ccc(-c5ccccc5)nc4c3)c3c(N)nccn32)C1 [Linsitinib] (partner 1 µM)
In short: as §1

Row | Cell Line | relative viability ([1]; first compound 0.04 µM) | relative viability ([1]; first compound 0.1265 µM) | relative viability ([1]; first compound 0.4 µM) | relative viability ([1]; first compound 1.265 µM) | relative viability ([1]; first compound 4 µM) | relative viability ([2]; first compound 0.04 µM) | relative viability ([2]; first compound 0.1265 µM) | relative viability ([2]; first compound 0.4 µM) | relative viability ([2]; first compound 1.265 µM) | relative viability ([2]; first compound 4 µM) | relative viability ([3]; first compound 0.04 µM) | relative viability ([3]; first compound 0.1265 µM) | relative viability ([3]; first compound 0.4 µM) | relative viability ([3]; first compound 1.265 µM) | relative viability ([3]; first compound 4 µM) | relative viability ([4]; first compound 0.002 µM) | relative viability ([4]; first compound 0.006325 µM) | relative viability ([4]; first compound 0.02 µM) | relative viability ([4]; first compound 0.06325 µM) | relative viability ([4]; first compound 0.2 µM)
1 | 201T | 0.497 | 0.416 | 0.328 | 0.488 | 0.423 | 0.701 | 0.697 | 0.688 | 0.759 | 0.734 | 0.876 | 0.864 | 0.841 | 0.904 | 0.77 | 1.13 | 1.01 | 1.1 | 1.09 | 1.01
2 | A549 | 0.36 | 0.182 | – | 0.154 | 0.178 | – | – | – | – | – | 0.263 | 0.281 | 0.21 | 0.345 | 0.247 | 0.568 | 0.569 | 0.645 | 0.57 | 0.709
3 | A-427 | 0.36 | 0.318 | 0.287 | 0.372 | 0.328 | 0.843 | 0.812 | 0.667 | 0.78 | 0.7 | 0.57 | 0.564 | 0.545 | 0.562 | 0.507 | 1.02 | 1.09 | 1.08 | 1.13 | 1.1
4 | ABC-1 | 0.243 | 0.254 | 0.231 | 0.267 | 0.217 | – | – | – | – | – | 1.03 | 1.2 | 1.08 | 1.17 | 1.15 | 0.904 | 0.804 | 0.828 | 0.753 | 0.713
5 | BEN | 0.277 | 0.27 | 0.262 | 0.28 | 0.281 | 1.01 | 0.98 | 0.929 | 0.735 | 0.766 | 0.736 | 0.649 | 0.757 | 0.775 | 0.694 | 0.855 | 0.84 | 0.897 | 0.868 | 0.731
6 | CAL-12T | 0.622 | 0.614 | 0.507 | 0.65 | 0.67 | 0.422 | 0.28 | 0.276 | 0.363 | 0.339 | – | – | – | – | – | 0.776 | 0.744 | 0.932 | 0.996 | 0.782
7 | COR-L23 | 0.439 | 0.39 | 0.411 | 0.433 | 0.517 | 0.603 | 0.639 | 0.538 | 0.62 | 0.578 | 0.489 | 0.49 | 0.46 | 0.471 | 0.401 | 0.839 | 0.863 | 1.04 | 0.294 | 0.177
8 | COR-L 105 | 0.592 | 0.473 | 0.433 | 0.564 | 0.421 | 0.518 | 0.41 | 0.41 | 0.456 | 0.461 | 0.567 | 0.667 | 0.513 | 0.615 | 0.642 | 0.804 | 0.872 | 1.05 | 0.709 | 1.03
9 | Calu-6 | – | – | – | – | – | – | – | – | – | – | – | – | – | – | – | – | 0.964 | 1.08 | 0.977 | 0.72
10 | ChaGo-K-1 | 0.49 | 0.453 | 0.424 | 0.477 | 0.436 | 0.945 | 0.907 | 0.865 | 0.906 | 0.913 | 0.515 | 0.404 | 0.524 | 0.538 | 0.46 | – | – | – | – | –
11 | EBC-1 | – | – | – | – | – | – | – | – | – | – | – | – | – | – | – | 0.864 | 0.73 | 0.894 | 0.919 | 0.605
12 | EKVX | 0.244 | 0.258 | 0.213 | 0.225 | 0.234 | 0.332 | 0.406 | 0.352 | 0.334 | 0.278 | 0.323 | 0.341 | 0.334 | 0.294 | 0.316 | 0.957 | 1.03 | 1.02 | 0.953 | 0.718
13 | EMC-BAC-2 | 0.564 | 0.517 | 0.478 | 0.506 | 0.524 | 0.953 | 0.875 | 0.795 | 0.863 | 0.859 | 1 | 1.03 | 0.942 | 1.05 | 0.941 | 0.541 | 0.778 | 0.794 | 0.826 | 0.844
14 | EPLC-272H | 0.302 | 0.291 | 0.308 | 0.257 | 0.265 | 0.311 | 0.291 | 0.254 | 0.257 | 0.216 | 0.35 | 0.354 | 0.366 | 0.435 | 0.333 | 1.06 | 1.07 | 1.19 | 0.959 | 1.12
15 | H3255 | 0.359 | 0.329 | 0.351 | 0.352 | 0.336 | 0.602 | 0.57 | 0.471 | 0.577 | 0.527 | 0.902 | 0.623 | 0.538 | 0.721 | 0.512 | 0.83 | 0.976 | 1.04 | 0.946 | 0.768
16 | HARA | 0.525 | 0.52 | 0.432 | 0.45 | 0.416 | 0.78 | 0.773 | – | 0.593 | 0.671 | 0.642 | 0.62 | – | 0.548 | 0.586 | 0.876 | 0.969 | 0.922 | 0.822 | 0.292
